Tested on: PSMA coated beads
Experiment: Flow cytometry ADCP assay, PSMA coated beads and U937 monocytes
Format: cell-based, human
Details: 400 nM CIR 3, 200 nM anti-DNP IgG, 10% FBS+RPMI
Method: 24 hours prior to inducing phagocytosis, 6 million U937 monocytes were seeded at 500,000 cells/mL and activated with IFN-γ ([…]). These cells were then counted and washed twice with serum free assay media (neat RPMI). Cells were then suspended to a concentration of 1 million cells/mL and stained with 1.9 μM Vybrant™ DiD Cell-Labelling Solution for 30 minutes (37° C., 5% CO2). Cells were then washed 3× with warm assay media (AM, 10% Ultra Low IgG FBS in RPMI) and resuspended to a concentration of 1.5 million cells/mL for use.
5.6 million YG strep beads were washed 3× with PBS and resuspended in 150 μL of a saturating concentration of biotinylated-PSMA solution. This was allowed to incubate at 4° C. for 1 hour and then washed 3× with serum free AM. The beads were resuspended with AM to a concentration of 15 million beads/mL for use.
All stocks were made in AM. The initial anti-DNP antibody stock solution was made (320 μL of 200 nM). 75 μL of this was removed and 0.4 μL of PMPA solution was added (250 mM in DMSO). […] Beads were detected in the PE-Cy7 channel, monocytes were detected in the APC Cy7 channel, PSMA loading was confirmed with the Alexa 647 channel. […] ADCP was determined by plotting monocyte stain against bead stain, and was quantified as % Target Phagocytosis=(Double Positive Events)/PSMA Bead Target Events+Double Positive Events×100. […]

O=C(O)CC[C@H](NC(=O)N[C@@H](CCCCNC(=O)NCCOCCOCCOCCOCCOCCOCCOCCOC(=O)n1cnc(CCNC(=O)CNc2ccc([N+](=O)[O-])cc2[N+](=O)[O-])c1)C(=O)O)C(=O)O [CIR 3]
ADCP of PSMA coated beads: could selectively affect ADCP of PSMA coated target beads via covalent recruitment of anti-DNP, in a time dependent manner
